Measured values: patent US20240425484A1, “INHIBITORS OF TYK2” (Atomwise Inc., priority 2023, published 2024)

Target: T1, TYK2-JH2 (Homo sapiens, UniProt P29597)
T1 construct: TYK JH2 enzyme mix (ChemPartner: CP20210818A-BV); purchased ChemPartner CP20210818A-BV
Experiment: TYK2-JH2 HTRF binding assay (ligand efficiency)
Settings: calculated (Equation 1) from IC50 of the TYK-JH2 binding assay
Experimental: The following example describes the TYK2-JH2 HTRF binding assay used to determine the ligand efficiency of the TYK2 inhibitors.
To calculate ligand efficiency, Equation 1 is applied: […]
in which IC50 comes from the binding assay used to determine compound potency.
TYK JH2 enzyme mix (ChemPartner: CP20210818A-BV), tracer (ChemPartner: CP-0029472-051) and mAb Anti-6HIS Tb cryptate Gold (Cisbio: Cat No. 61HI2TLA) mix were prepared in assay buffer (10 mM MgCl2, 20 mM HEPES pH 7.5, 0.01% Triton X-100, 1 mM DTT). Compounds diluted in DMSO (Final Concentrations 0.1 to 0.000005 [μM]) and enzyme mix (0.5 nM Final Concentration) were added to 384 well plates, briefly centrifuged and incubated at room temperature for 10 minutes. After incubation, tracer mix (Tracer-35 nM final concentration); (MAb Anti-6HIS Tb cryptate Gold-0.5X final)) was added, briefly centrifuged then incubate at room temperature 60 minutes. After incubation, plates were read by Envision TR-FRET (Ex340/Em495/520) protocol (PerkinElmer-Envision 2104 multilabel plate reader).

T1 sequence (P29597 589-875 limits assumed): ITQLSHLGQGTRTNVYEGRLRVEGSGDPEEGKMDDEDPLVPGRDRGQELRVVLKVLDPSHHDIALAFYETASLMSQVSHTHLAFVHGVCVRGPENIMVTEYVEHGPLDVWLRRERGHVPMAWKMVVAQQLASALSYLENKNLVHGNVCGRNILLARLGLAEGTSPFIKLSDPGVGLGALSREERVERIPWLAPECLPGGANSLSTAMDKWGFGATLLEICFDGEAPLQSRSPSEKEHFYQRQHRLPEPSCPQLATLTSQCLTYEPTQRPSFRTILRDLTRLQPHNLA

SMILES	Ligand Efficiency
CS(=O)(=O)c1ccccc1Nc1cc(Nc2ccc(NC3COC3)cn2)ncn1 [Compound 80, N^4-(2-(methylsulfonyl)phenyl)-N^6-(5-(oxetan-3-ylamino)pyridin-2-yl)pyrimidine-4,6-diamine]	† (†: <0.37)
Cc1cccc(Nc2cc(Nc3ccncc3S(C)(=O)=O)ncn2)n1 [Compound 60, N^4-(6-methylpyridin-2-yl)-N^6-(3-(methylsulfonyl)pyridin-4-yl)pyrimidine-4,6-diamine]	††† (†††: >0.39)
CS(=O)(=O)c1ccccc1Nc1cc(Nc2ccc(N3CCOCC3)cn2)ncn1 [Compound 42, N^4-(2-(methylsulfonyl)phenyl)-N^6-(5-morpholinopyridin-2-yl)pyrimidine-4,6-diamine]	††† (†††: >0.39)
CS(=O)(=O)c1cccnc1Nc1cc(Nc2ccc(C(=O)NC3CC(F)(F)C3)cn2)ncn1 [Compound 38, N-(3,3-difluorocyclobutyl)-6-(6-(3-(methylsulfonyl)pyridine-2-ylamino)pyrimidin-4-ylamino) nicotinamide]	††† (†††: >0.39)
COc1ccnc(Nc2cc(Nc3ccc(C(C)N4CC5(COC5)C4)cn3)ncn2)c1S(C)(=O)=O (centres unmarked) [Compound 76, N^4-(5-(1-(2-oxa-6-azaspiro[3.3]heptan-6-yl)ethyl)pyridin-2-yl)-N^6-(4-methoxy-3-(methylsulfonyl)pyridin-2-yl)pyrimidine-4,6-diamine]	† (†: <0.37)
Cc1cccc(Nc2cc(Nc3cnccc3C(N)=O)ncn2)n1 [Compound 61, 3-((6-((6-methylpyridin-2-yl)amino)pyrimidin-4-yl)amino) isonicotinamide]	††† (†††: >0.39)
C[C@@H](c1ccc(Nc2cc(Nc3ncccc3S(C)(=O)=O)ncn2)nc1)N1CC2(CCOC2)C1 [Compound 32, (S)—N^4-(5-(1-(6-oxa-2-azaspiro[3.4]octan-2-yl)ethyl)pyridin-2-yl)-N^6-(3-(methylsulfonyl)pyridin-2-yl)pyrimidine-4,6-diamine]	††† (†††: >0.39)
Cc1ccnc(Nc2cc(Nc3ccccc3P(C)(C)=O)ncn2)c1 [Compound 63, N^4-(2-(dimethylphosphoryl)phenyl)-N^6-(4-methylpyridin-2-yl)pyrimidine-4,6-diamine]	††† (†††: >0.39)
C[C@@H](c1ccc(Nc2cc(Nc3ncccc3S(C)(=O)=O)ncn2)nc1)N1C[C@H]2COC[C@H]2C1 [Compound 25, N^4-(3-(methylsulfonyl)pyridin-2-yl)-N^6-(5-(1-((3aR,6aS)-tetrahydro-1H-furo[3,4-c]pyrrol-5 (3H)-yl)ethyl)pyridin-2-yl)pyrimidine-4,6-diamine]	††† (†††: >0.39)
C[C@@H](c1ccc(Nc2cc(Nc3ncc(Cl)cc3S(C)(=O)=O)ncn2)nc1)N1CC2(COC2)C1 [Compound 14, (S)—N^4-(5-(1-(2-oxa-6-azaspiro[3.3]heptan-6-yl)ethyl)pyridin-2-yl)-N^6-(5-chloro-3-(methylsulfonyl)pyridin-2-yl)pyrimidine-4,6-diamine]	††† (†††: >0.39)
CC(c1ccc(Nc2cc(Nc3ncccc3S(C)(=O)=O)ncn2)nc1)N1CC(F)C1 (centres unmarked) [Compound 22, N^4-(5-(1-(3-fluoroazetidin-1-yl)ethyl)pyridin-2-yl)-N^6-(3-(methylsulfonyl)pyridin-2-yl)pyrimidine-4,6-diamine]	††† (†††: >0.39)
CC(c1ccc(Nc2ncnc(Nc3ncccc3S(C)(=O)=O)c2F)nc1)N1CC2(COC2)C1 (centres unmarked) [Compound 75, N^4-(5-(1-(2-oxa-6-azaspiro[3.3]heptan-6-yl)ethyl)pyridin-2-yl)-5-fluoro-N^6-(3-(methylsulfonyl)pyridin-2-yl)pyrimidine-4,6-diamine]	† (†: <0.37)
COc1ccc(Nc2cc(NC(=O)C3CC3)ncn2)c(C(N)=O)c1 [Compound 70, 2-((6-(cyclopropanecarboxamido)pyrimidin-4-yl)amino)-5-methoxy benzamide]	††† (†††: >0.39)
Cc1cccc(Nc2cc(Nc3ccccc3NS(C)(=O)=O)ncn2)n1 [Compound 53, N-(2-(6-(6-methylpyridin-2-ylamino)pyrimidin-4-ylamino)phenyl) methanesulfonamide]	††† (†††: >0.39)
CS(=O)(=O)c1cccnc1Nc1cc(Nc2ccc3c(n2)CC[C@@H]3N2CC3(COC3)C2)ncn1 [Compound 9, N^4-((5S)-5-(2-oxa-6-azaspiro[3.3]heptan-6-yl)-6,7-dihydro-5H-cyclopenta[b]pyridin-2-yl)-N^6-(3-(methylsulfonyl)pyridin-2-yl)pyrimidine-4,6-diamine]	††† (†††: >0.39)
Cc1cncc(Nc2cc(Nc3ccccc3C(N)=O)ncn2)n1 [Compound 49, 2-(6-(6-methylpyrazin-2-ylamino)pyrimidin-4-ylamino)benzamide]	††† (†††: >0.39)

SMILES	Ligand Efficiency
Cc1cnnc(Nc2cc(Nc3ccccc3C(N)=O)ncn2)c1 [Compound 47, 2-((6-((5-methylpyridazin-3-yl)amino)pyrimidin-4-yl)amino)benzamide]	††† (†††: >0.39)
CC1(Nc2ccc(Nc3cc(Nc4ncccc4S(C)(=N)=O)ncn3)nc2)COC1 (centres unmarked) [Compound 73, N^4-(5-((3-methyloxetan-3-yl)amino)pyridin-2-yl)-N^6-(3-(S-methylsulfonimidoyl)pyridin-2-yl)pyrimidine-4,6-diamine]	††† (†††: >0.39)
CC(c1ccc(Nc2cc(Nc3ncccc3S(C)(=O)=O)ncn2)nc1)N1CC2(CC(F)C2)C1 (stereo in doubt) [Compound 10, N^4-(5-((1R)-1-(6-fluoro-2-azaspiro[3.3]heptan-2-yl)ethyl)pyridin-2-yl)-N^6-(3-(methylsulfonyl)pyridin-2-yl)pyrimidine-4,6-diamine]	††† (†††: >0.39)
CS(=O)(=O)c1cccnc1Nc1cc(Nc2ccc(N3CCN(C4CC4)CC3)cn2)ncn1 [Compound 7, N^4-(5-(4-cyclopropylpiperazin-1-yl)pyridin-2-yl)-N^6-(3-(methylsulfonyl)pyridin-2-yl)pyrimidine-4,6-diamine]	††† (†††: >0.39)
CC1(Nc2cnc(Nc3cc(Nc4ncccc4S(C)(=O)=O)ncn3)cn2)COC1 [Compound 74, N^4-(5-(3-methyloxetan-3-ylamino)pyrazin-2-yl)-N^6-(3-(methylsulfonyl)pyridin-2-yl)pyrimidine-4,6-diamine]	††† (†††: >0.39)
Cc1cc(Nc2cc(Nc3ncccc3S(C)(=O)=O)ncn2)ncc1NC1(C)COC1 [Compound 23, N^4-(4-methyl-5-((3-methyloxetan-3-yl)amino)pyridin-2-yl)-N^6-(3-(methylsulfonyl)pyridin-2-yl)pyrimidine-4,6-diamine]	††† (†††: >0.39)
Cc1nccc(Nc2cc(Nc3ccccc3C(N)=O)ncn2)n1 [Compound 48, 2-((6-((2-methylpyrimidin-4-yl)amino)pyrimidin-4-yl)amino)benzamide]	††† (†††: >0.39)
CC(NC1COC1)c1ccc(Nc2cc(Nc3ccccc3S(C)(=O)=O)ncn2)nc1 (stereo in doubt) [Compound 40, (R)—N^4-(2-(methylsulfonyl)phenyl)-N^6-(5-(1-(oxetan-3-ylamino)ethyl)pyridin-2-yl)pyrimidine-4,6-diamine]	††† (†††: >0.39)
CC1(CNc2ccc(Nc3cc(Nc4ncccc4S(C)(=O)=O)ncn3)nc2)COC1 [Compound 36, N^4-(5-(((3-methyloxetan-3-yl)methyl)amino)pyridin-2-yl)-N^6-(3-(methylsulfonyl)pyridin-2-yl)pyrimidine-4,6-diamine]	††† (†††: >0.39)
CS(=O)(=O)c1ccccc1Nc1cc(NC(=O)C2CC2)ncn1 [Compound 69, N^4-(cyclopropylcarbonyl)-N^6-(2-(methylsulfonyl)phenyl)pyrimidine-4,6-diamine]	††† (†††: >0.39)
CS(=O)(=O)c1cccnc1Nc1cc(Nc2ncccc2F)ncn1 [Compound 64, N^4-(3-fluoropyridin-2-yl)-N^6-(3-(methylsulfonyl)pyridin-2-yl)pyrimidine-4,6-diamine]	††† (†††: >0.39)
Cc1cccnc1Nc1cc(Nc2ccccc2C(N)=O)ncn1 [Compound 68, 2-((6-((3-methylpyridin-2-yl)amino)pyrimidin-4-yl)amino)benzamide]	††† (†††: >0.39)
Cc1cccc(Nc2cc(Nc3ccccc3C(N)=O)ncn2)n1 [Compound 46]	††† (†††: >0.39)
CC1(Nc2ccc(Nc3cc(Nc4ncccc4S(C)(=O)=O)ncn3)nc2)COC1 [Compound 21, N^4-(5-((3-methyloxetan-3-yl)amino)pyridin-2-yl)-N^6-(3-(methylsulfonyl)pyridin-2-yl)pyrimidine-4,6-diamine]	††† (†††: >0.39)
C[C@H]1CN(C)CCN1c1ccc(Nc2cc(Nc3ncccc3S(C)(=O)=O)ncn2)nc1 [Compound 20, (S)—N^4-(5-(2,4-dimethylpiperazin-1-yl)pyridin-2-yl)-N^6-(3-(methylsulfonyl)pyridin-2-yl)pyrimidine-4,6-diamine]	††† (†††: >0.39)
Cc1cccc(Nc2cc(Nc3ncccc3CS(C)(=O)=O)ncn2)n1 [Compound 71, N^4-(6-methylpyridin-2-yl)-N^6-(3-((methylsulfonyl)methyl)pyridin-2-yl)pyrimidine-4,6-diamine]	††† (†††: >0.39)
